Reference: publication PMC4099110, “Synthesis and Evaluation of Novel Pyrroles and Pyrrolopyrimidines as Anti-Hyperglycemic Agents” (BioMed Research International, 2014)
“And” between values parts separate entries of the source, which are not always exact repeats. Equal entries are not always repeated.

Experiments:
Male Wistar rats = assay: Sucrose-Loaded Model (SLM), blood glucose AUC; assay type: in vivo, rat; details: oral gavage, sucrose load 10 gm/kg, mean AUC of blood glucose 30-120 min, dose equivalent to Glimepiride 4 mg/kg by M.wt, vs untreated normal control
Procedure: The complete course of the experiment was conducted using male Wistar albino rats (200–250 g), reared and maintained in the animal house of the institution and provided free access to pelleted food and water ad libitum. The rats were maintained in a controlled environment (12 h light and dark cycle) for about a week for acclimatization. The protocol of the study was approved by the animal ethics committee of the Faculty of Pharmacy, Helwan University (10-01-2012). The study was conducted in accordance with the EC, directive 86/609/EEC for animal experiments.
Glimepiride (Amaryl) was used as a standard antidiabetic (4 mg/kg) in 1% gum acacia and administered orally. Equivalent doses of all derivatives were calculated according to their molecular weight [M·wt].
Male Wistar rats were fasted overnight. Blood was collected initially and then the compounds were given to corresponding groups consisting of six rats each by oral gavage. A sucrose load of (10 gm/kg) body weight was given to each rat after half an hour posttest treatment. Blood was collected in 30, 60, 90, and 120 min after sucrose load. The percentages (%) fallen in blood glucose level were calculated according to the AUC method.
Data were represented as mean area under curve (AUC) ± SD. Significant differences between groups was tested using GraphPad InStat (Graph software Inc., V 3.05, Ralph Stahlman, Purdue University). Appropriate graphs were plotted using Microsoft Excel 2007. P value less than 0.05 was considered statistically significant.

male Wistar albino rats = assay: Streptozotocin (STZ) model of diabetes, blood glucose AUC; assay type: in vivo, rat; details: for Potency of antihyperglycemic derivatives compared to Amaryl: decrease in blood glucose relative to Amaryl = 100%, model not stated
Procedure: The complete course of the experiment was conducted using male Wistar albino rats (200-250 g), reared and maintained in the animal house of the institution and provided free access to pelleted food and water ad libitum. The rats were maintained in a controlled environment (12 h light and dark cycle) for about a week for acclimatization. The protocol of the study was approved by the animal ethics committee of the Faculty of Pharmacy, […] University (10-01-2012). The study was conducted in accordance with the EC, directive 86/609/EEC for animal experiments. […] Equivalent doses of all derivatives were calculated according to their molecular weight [M·wt]. Diabetes was induced in overnight fasted rats with a single intraperitoneal injection of streptozotocin (STZ) (Sigma-Aldrich, Co., St. Louis, USA. Catalog number: 1001062761) in a dose of 65 mg/kg. STZ was freshly dissolved in ice cold citrate buffer (0.01 M, pH 4.5) prior to injection. […] Group 2, diabetic + Glimepiride ([…]) (4 mg/kg), served as a reference antidiabetic drug. Groups (3-14) were given the various pyrrole derivatives ([…], b, f, and VIIIf, a, resp.). The treated groups administered the […] and different derivatives orally. For each group, blood glucose was estimated at zero, one, two, four, and six hours after oral administration of derivatives using glucometer (Gluco Dr Super Sensor, AllMedicus Co., Ltd., Anyang, Gyeonggi, Korea). Data were represented as mean area under curve (AUC) ± SD. Significant differences between groups was tested using GraphPad InStat (Graph software Inc., V 3.05, Ralph […], Purdue University). Appropriate graphs were plotted using Microsoft Excel 2007.

[1] = In vivo acute toxicity study, serum liver and kidney markers; design: species or system rat; details: for ALP / ALT / AST / Creatinine: rat serum; for levels of sera ALT, AST, ALP, and creatinine versus control untreated group: rats
Procedure: Alanine aminotransferase (ALT) and aspartate aminotransferase (AST) activities in serum were measured according to the Reitman-Frankel calorimetric transaminase procedure, whereas alkaline phosphatase (ALP) was assayed by the kinetic enzymatic method by measuring the rate of hydrolysis of p-nitrophenyl phosphate by ALP according to Henry; all were measured as indicators of hepatic injury. Serum creatinine levels were assayed as an indicator for renal injury in the samples by a calorimetric method, using commercial diagnostic kits (Diamond Diagnostics, Egypt).

[2] = as above; details: rat
[3] = oral, STZ 65 mg/kg i.p. diabetic rats, mean AUC of blood glucose 0-6 h, dose equivalent to Glimepiride 4 mg/kg by M.wt, vs diabetic control

SMILES | % reduction in blood glucose compared to control, SLM (Male Wistar rats) | Potency of antihyperglycemic derivatives compared to Amaryl (male Wistar albino rats) | % reduction in blood glucose compared to control, STZ (male Wistar albino rats; [3]) | ALP [1] | ALT [1] | AST [1] | Creatinine [1] | levels of sera ALT, AST, ALP, and creatinine versus control untreated group [1] | death or toxicity symptoms [2] | melting point | inhibition in vivo at 4 mg/kg (Male Wistar rats; Rattus norvegicus, 2 h, read-out: % reduction in blood glucose compared to control, SLM) | inhibition in vivo at 4 mg/kg (male Wistar albino rats; Rattus norvegicus, oral, STZ 65 mg/kg i.p. diabetic rats, mean AUC of blood glucose 0-6 h, dose equivalent to Glimepiride 4 mg/kg by M.wt, vs diabetic control, read-out: % reduction in blood glucose compared to control, STZ)
Cc1c(-n2cc(-c3ccccc3)c(C#N)c2N)c(=O)n(-c2ccccc2)n1C [Ie, 2-Amino-1-(1,5-dimethyl-3-oxo-2-phenyl-2,3-dihydro-1H -pyrazol-4-yl)-4-phenyl-1H -pyrrole-3-carbonitrile] | 16.7% and 16.7 ^ a % | 97% and 96.99% | 29.5% and 29.5 ^ a % | 73.9 ± 13.2 U/L | 20.5 ± 3.1 U/L | 62.7 ± 9.7 U/L | 0.77 ± 0.14 mg/dL | not significantly changed | did not die or show any toxicity symptoms |  |  | 
N#Cc1c(-c2ccccc2)c(-c2ccccc2)n(Cc2ccccc2)c1N [Ia] | 17.4% and 17.4 ^ a % | 109.4% and 109.43% | 33.3% and 33.3 ^ a % | 68.5 ± 12.3 U/L | 17.9 ± 2.7 U/L | 69.4 ± 9.5 U/L | 0.8 ± 0.16 mg/dL | not significantly changed | did not die or show any toxicity symptoms |  |  | 
Cc1nc(Cl)c2c(-c3ccccc3)c(-c3ccccc3)n(-c3c(C)n(C)n(-c4ccccc4)c3=O)c2n1 [IVg, 4-(4-Chloro-2-methyl-5,6-diphenyl-7H-pyrrolo[2,3-d]pyrimidin-7-yl)-1,5-dimethyl-2-phenyl-1H-pyrazol-3(2H)-one] | 13 ^ a % |  | 11.2 ^ a % |  |  |  |  |  |  | 158 to 160 °C |  | 
CCC1=C(C)CN(C(=O)NCCc2ccc(S(=O)(=O)NC(=O)N[C@H]3CC[C@H](C)CC3)cc2)C1=O [Amaryl, Glimepiride, reference compound] |  | 100% |  |  |  |  |  |  |  |  | 27.7% | 30.4%
